Results reported in patent publication US6331546A, “Use of 2-amino-3,4-dihydroquinazolines for the production of a medicament for the treatment or prophylaxis of illnesses caused by ischemic conditions” (Aventis Pharma Deutschland GmbH, priority 1999, dated 2001).
Structures can show the parent of a compound that is named as a salt.

Molecular target: T1, Na+/H+ exchanger of rabbit erythrocytes (Oryctolagus cuniculus, UniProt P23791)
T1 construct: endogenous in cells; host or cells: erythrocytes in fresh heparinised blood of White New Zealand rabbits (Ivanovas)
Assay: Inhibition of the Na+/H+ exchanger of rabbit erythrocytes (amiloride-sensitive sodium influx, flame photometry)
Type: cell-based
Conditions: hyperosmolar salt/sucrose medium, pH 7.4, 37° C.
Text: Inhibition of the Na^+ /H^+ Exchanger of Rabbit Erythrocytes White New Zealand rabbits (Ivanovas) received a standard diet with 2% cholesterol for six weeks in order to activate the Na^+ /H^+ exchange and thus to be able to determine the Na^+ influx into the erythrocytes via Na^+ /H^+ exchange by flame photometry. The blood was removed from the auricular arteries and rendered uncoagulable by means of 25 IU of potassium heparin. A part of each sample was used for the duplicate determination of the hematocrit by centrifugation. Aliquots of 100 μl in each case served for the measurement of the Na^+ starting content of the erythrocytes. In order to determine the amiloride-sensitive sodium influx, 100 μl of each blood sample in 5 ml in each case of a hyperosmolar salt/sucrose medium (mmol/I: 140 NaCl, 3 KCl, 150 sucrose, 0.1 ouabain, 20 tris-hydroxymethyl-aminomethane) were incubated at pH 7.4 and 37° C. The erythrocytes were then washed three times with ice-cold MgCl^2 /ouabain solution (mmol/I: 112 MgCl2, 0.1 ouabain) and hemolyzed in 2.0 ml of distilled water. The intracellular sodium content was determined by flame photometry. The Na^+ net influx was calculated from the difference between sodium starting values and the sodium content of the erythrocytes after incubation. The amiloride-inhibitable sodium influx followed from the difference in the sodium content of the erythrocytes after incubation with and without amiloride 3×10^-4 mol/I. The procedure was the same in the case of the compounds according to the invention.

T1 sequence (P23791 whole entry): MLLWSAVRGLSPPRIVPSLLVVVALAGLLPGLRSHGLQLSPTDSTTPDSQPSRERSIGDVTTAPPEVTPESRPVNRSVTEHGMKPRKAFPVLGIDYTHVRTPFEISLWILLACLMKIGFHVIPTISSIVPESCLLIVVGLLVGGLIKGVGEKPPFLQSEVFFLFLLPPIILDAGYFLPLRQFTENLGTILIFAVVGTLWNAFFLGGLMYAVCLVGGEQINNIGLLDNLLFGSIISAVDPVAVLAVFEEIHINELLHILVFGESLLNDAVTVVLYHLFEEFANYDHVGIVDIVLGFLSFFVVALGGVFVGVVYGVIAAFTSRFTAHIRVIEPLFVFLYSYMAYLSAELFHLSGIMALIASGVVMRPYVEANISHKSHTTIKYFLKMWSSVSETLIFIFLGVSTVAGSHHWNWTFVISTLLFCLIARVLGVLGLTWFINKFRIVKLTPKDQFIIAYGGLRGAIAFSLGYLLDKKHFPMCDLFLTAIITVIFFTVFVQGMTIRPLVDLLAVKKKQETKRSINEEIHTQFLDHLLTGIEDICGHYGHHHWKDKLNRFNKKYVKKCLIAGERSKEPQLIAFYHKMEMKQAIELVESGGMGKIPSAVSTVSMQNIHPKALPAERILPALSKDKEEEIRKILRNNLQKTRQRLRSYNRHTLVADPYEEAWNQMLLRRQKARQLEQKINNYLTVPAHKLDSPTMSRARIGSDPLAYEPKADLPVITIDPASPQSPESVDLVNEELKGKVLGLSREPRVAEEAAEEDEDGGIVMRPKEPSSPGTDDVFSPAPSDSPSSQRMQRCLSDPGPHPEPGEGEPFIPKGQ

| IC50 | Structure (SMILES) |
| --- | --- |
| 3.4 µM | COc1ccc(C2NC(N)=Nc3ccccc32)cc1 (stereo not drawn) [Example 1, 2-Amino-4-(4-methoxyphenyl)-3,4-dihydroquinazoline Hydrochloride] |
| 3.2 µM | COc1ccc(C2NC(N)=Nc3ccccc32)cc1OC (stereo not drawn) [Example 2, 2-Amino-4-(3,4-dimethoxyphenyl)-3,4-dihydroquinazolinium Fumarate] |
| 4.1 µM | COc1ccc(C2c3ccccc3N=C(N)N2C)cc1OC (stereo not drawn) [Example 3, 2-Amino4-(3,4-dimethoxyphenyl)-3-methyl-3,4-dihydro-quinazolinium Fumarate] |
